Test results as given in patent publication US20260008760A1, “DIPEPTIDYL PEPTIDASE 1 INHIBITORS AND USES THEREOF” (Insmed Incorporated, priority 2024, published 2026).

Key:
DPP1 in HL-60 cells = DPP1 in HL-60 cells (Homo sapiens, UniProt P53634); experiment: DPP1 Cell Single-Point Percent Inhibition Testing; type: cell-based; design: host or cells: HL-60 cells; settings: final compound concentration 5 nM, n = 1
How it was run: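 HL-60 cells in unsupplemented RPMI preincubated 60 min at 37 °C with test article (5 nM final, 0.1% DMSO), then given cell-permeable H-Gly-Phe-AFC (100 μM final) for 30 min. Fluorescence at 400/505 nm; percent inhibition versus vehicle after subtracting cell-free background and 10 μM brensocatib non-specific signal.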

human DPP1 enzyme = human DPP1 enzyme (Homo sapiens, UniProt P53634); experiment: Human DPP1 Enzyme Single-Point Percent Inhibition Testing (HL-60 lysate); type: biochemical; design: A crude lysate of HL-60 cells (ATCC; Manassas, VA) was used as a source of human DPP1 enzyme; host or cells: HL-60 cells (crude lysate); settings: final compound concentration of 10 nM, 400 μM H-Gly-Arg-AMC, n = 1
Sequence of human DPP1 enzyme (P53634 25-463): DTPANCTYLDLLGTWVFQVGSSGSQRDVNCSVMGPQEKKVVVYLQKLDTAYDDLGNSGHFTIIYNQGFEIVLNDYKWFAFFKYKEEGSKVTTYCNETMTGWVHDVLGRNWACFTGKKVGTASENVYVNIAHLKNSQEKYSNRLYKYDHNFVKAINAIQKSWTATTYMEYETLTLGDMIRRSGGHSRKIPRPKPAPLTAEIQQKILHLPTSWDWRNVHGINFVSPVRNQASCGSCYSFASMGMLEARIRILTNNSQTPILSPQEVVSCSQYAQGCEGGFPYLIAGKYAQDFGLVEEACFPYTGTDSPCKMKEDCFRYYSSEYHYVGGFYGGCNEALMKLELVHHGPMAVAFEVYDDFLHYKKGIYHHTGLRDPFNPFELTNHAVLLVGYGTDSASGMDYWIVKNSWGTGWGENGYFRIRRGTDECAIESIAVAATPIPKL
How it was run: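 Enzyme source was HL-60 cell lysate in MES pH 6.0 buffer with NaCl and DTT, pre-incubated 10 min at 37° C with 10 nM compound (final, 1% DMSO). Cleavage of 400 μM H-Gly-Arg-AMC was followed at 350/450 nm over 90 min at 37° C, and percent inhibition was taken against vehicle wells.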

Sequence of DPP1 in HL-60 cells (P53634 25-463): as above

SMILES	inhibition at 0.005 µM (DPP1 in HL-60 cells) [%]	inhibition at 0.01 µM (human DPP1 enzyme) [%]
CN1CCCC2(C1)C(=O)N(C)c1ccc(-c3ccc(C[C@@H](C#N)NC(=O)[C@@H]4CNCCCO4)c(F)c3)cc12 (stereo partly shown) [Compound 48]	≤ 76.5	40 to 66.7
N#C[C@H](Cc1ccc(-c2ccc(S(=O)(=O)N3CCC3)cc2)cc1F)NC(=O)[C@@H]1CNCCCO1 [Compound 49]	≤ 76.5	≤ 40
Cn1nnc2ccc(-c3ccc(C[C@@H](C#N)NC(=O)[C@@H]4CNCCCCO4)c(F)c3)cc21 [Compound H38]	≤ 76.5	≤ 40
CO[C@H]1CCO[C@H](C(=O)N[C@H](C#N)Cc2ccc(-c3ccc(CN4CCN(C)CC4)cc3)cc2F)CNC1 [Compound F28]	≤ 76.5	≤ 40
CO[C@H]1CCO[C@H](C(=O)N[C@H](C#N)Cc2ccc(-c3ccc4c(c3)C3(CCN(C)C3)OC4=O)cc2)CNC1 (stereo partly shown) [Compound F21]	≤ 76.5	40 to 66.7
COC1CNC[C@@H](C(=O)N[C@H](C#N)Cc2ccc(-c3ccc4cnn(C)c4c3)cc2)OC1 (stereo partly shown) [Compound H11]	76.5 to 93.9	≥ 66.7
Cc1cn2cc(-c3ccc(C[C@@H](C#N)NC(=O)[C@@H]4CN[C@@H](C)[C@H](O)CO4)cc3)cc2c(C)n1 [Compound A98]	≤ 76.5	≥ 66.7
CN1CCN(Cc2ccc(-c3ccc(C[C@@H](C#N)NC(=O)[C@@H]4CNCCCCO4)cc3)cc2)CC1 [Compound 40]	≤ 76.5	≤ 40
N#C[C@H](Cc1ccc(-c2cnc3c(n2)CCCC3)cc1)NC(=O)[C@@H]1CNCCCCO1 [Compound A114]	≤ 76.5	≤ 40
Cc1cn2cc(-c3ccc(C[C@@H](C#N)NC(=O)[C@@H]4CNCCCO4)c(F)c3)cc2c(C)n1 [Compound A118]	≤ 76.5	≤ 40
Cc1nc(C)c2cc(-c3ccc(C[C@@H](C#N)NC(=O)[C@@H]4CNCCCO4)cc3)cn2c1C [Compound A141]	76.5 to 93.9	≤ 40
COC1CNC[C@@H](C(=O)N[C@H](C#N)Cc2ccc(-c3cc4c(C)nc(C)cn4c3)cc2)OC1 (stereo partly shown) [Compound A86]	≤ 76.5	40 to 66.7
CO[C@@H]1CCNC[C@@H](C(=O)N[C@H](C#N)Cc2ccc(-c3ccc4c(c3)C3(CC4)CCN(C)CC3)cc2F)OC1 [Compound F11]	≤ 76.5	≥ 66.7
CO[C@H]1CCO[C@H](C(=O)N[C@H](C#N)Cc2ccc(-c3ccc4c(c3)C3(CN(C)C3)OC4=O)cc2)CNC1 [Compound F20]	≤ 76.5	40 to 66.7
C[C@@H]1NC[C@@H](C(=O)NC(C#N)Cc2cc3c(cc2F)-c2cc4c(cc2CO3)oc(=O)n4C)OC[C@H]1O (stereo partly shown) [Compound C19]	≤ 76.5	≥ 66.7
CO[C@H]1CCO[C@H](C(=O)N[C@H](C#N)Cc2ccc(-c3ccc4cnn(C)c4c3)cc2F)CNC1 [Compound H19]	≤ 76.5	≥ 66.7
N#C[C@H](Cc1ccc(-c2ccc3c(n2)CCCN3)cc1F)NC(=O)[C@@H]1CNCCCO1 [Compound A119]	≤ 76.5	≤ 40
N#C[C@H](Cc1cc2c(cc1F)-c1ccc(F)cc1CO2)NC(=O)[C@@H]1CNCCCCO1 [Compound B30]	≤ 76.5	≤ 40
CO[C@H]1CCO[C@H](C(=O)N[C@H](C#N)Cc2ccc(-c3cnc4c(n3)CCCC4)cc2F)CNC1 [Compound A97]	≤ 76.5	40 to 66.7

SMILES	inhibition at 0.005 µM (DPP1 in HL-60 cells) [%]	inhibition at 0.01 µM (human DPP1 enzyme) [%]
CO[C@@H]1CCNC[C@@H](C(=O)NC(C#N)Cc2cc3c(cc2F)-c2cc(C#N)ccc2CO3)OC1 (stereo partly shown) [Compound B21]	76.5 to 93.9	≥ 66.7
CO[C@@H]1CCNC[C@@H](C(=O)N[C@H](C#N)Cc2ccc(-c3ccc4cnn(C5CCN(C)CC5)c4c3)cc2)OC1 [Compound H3]	≤ 76.5	≥ 66.7
CCN1C(=O)Cc2ccc(-c3ccc(C[C@@H](C#N)NC(=O)[C@@H]4CNC[C@@H](OC)CCO4)c(F)c3)cc21 [Compound G6]	≤ 76.5	≥ 66.7
CO[C@H]1CCO[C@H](C(=O)N[C@H](C#N)Cc2ccc(-c3cnc4c(n3)CCCC4)cc2)CNC1 [Compound A96]	≤ 76.5	40 to 66.7
CO[C@@H]1CCNC[C@@H](C(=O)N[C@H](C#N)Cc2ccc(-c3ccc(CN4CCN(C)CC4)cc3)cc2)OC1 [Compound F10]	≤ 76.5	≥ 66.7
C[C@@H]1NC[C@@H](C(=O)N[C@H](C#N)Cc2ccc(-c3ccc4c(n3)CCCN4)cc2F)OC[C@@H]1O [Compound A107]	≤ 76.5	≤ 40
CN1CCC(n2ncc3ccc(-c4ccc(C[C@@H](C#N)NC(=O)[C@@H]5CNCCCO5)c(F)c4)cc32)CC1 [Compound A144]	≤ 76.5	40 to 66.7
Cn1ncc2ccc(-c3ccc(C[C@@H](C#N)NC(=O)[C@@H]4CNCCCCO4)c(F)c3)cc21 [Compound H37]	≤ 76.5	40 to 66.7
COC1CNC[C@@H](C(=O)N[C@H](C#N)Cc2ccc(-c3cnc4c(n3)CCCC4)cc2F)OC1 (stereo partly shown) [Compound A91]	≤ 76.5	≥ 66.7
C[C@@H]1NC[C@@H](C(=O)NC(C#N)Cc2cc3c(cc2F)-c2cc4c(cc2CO3)oc(=O)n4C)OC[C@@H]1O (stereo partly shown) [Compound C22]	≤ 76.5	≥ 66.7
CN1CC2(C1)OC(=O)c1ccc(-c3ccc(C[C@@H](C#N)NC(=O)[C@@H]4CNCCCCO4)c(F)c3)cc12 [Compound 42]	≤ 76.5	40 to 66.7
C[C@@H]1NC[C@@H](C(=O)N[C@H](C#N)Cc2ccc(-c3ccc4cnn(C5CCN(C)CC5)c4c3)cc2)OC[C@H]1O [Compound H21]	≤ 76.5	≥ 66.7
CN1CCC(n2ncc3ccc(-c4ccc(C[C@@H](C#N)NC(=O)[C@@H]5CNCCCCO5)c(F)c4)cc32)CC1 [Compound H34]	≤ 76.5	≥ 66.7
CCN1C(=O)Cc2ccc(-c3ccc(C[C@@H](C#N)NC(=O)[C@@H]4CN[C@@H](C)[C@H](O)CO4)c(F)c3)cc21 [Compound G8]	≤ 76.5	≥ 66.7
C[C@@H]1NC[C@@H](C(=O)N[C@H](C#N)Cc2ccc(-c3ccc4cnn(C5CCN(C)CC5)c4c3)cc2F)OC[C@@H]1O [Compound H28]	≤ 76.5	≥ 66.7
C[C@@H]1NC[C@@H](C(=O)N[C@H](C#N)Cc2ccc(-c3cnc4c(n3)CCCC4)cc2)OC[C@@H]1O [Compound A108]	≤ 76.5	≤ 40
CO[C@@H]1CCNC[C@@H](C(=O)N[C@H](C#N)Cc2ccc(-c3cnc4c(n3)CCCC4)cc2)OC1 [Compound A84]	≤ 76.5	40 to 66.7
CO[C@H]1CCO[C@H](C(=O)NC(C#N)Cc2cc3c(cc2F)-c2cc(C#N)ccc2CO3)CNC1 (stereo partly shown) [Compound B25]	≤ 76.5	40 to 66.7
CO[C@H]1CCO[C@H](C(=O)N[C@H](C#N)Cc2cc3c(cc2F)-c2ccc(C#N)cc2CO3)CNC1 [Compound B24]	≤ 76.5	40 to 66.7
